Reference: patent US6339045B1, “N-(unsubstituted or substituted)-4-substituted-6-(unsubstituted or substituted)phenoxy-2-pyridinecarboxamides or thiocarboxamides, processes for producing the same, and herbicides” (Kureha Kagaku Kogyo Kabushiki Kaisha, priority 1995, dated 2002)

Experiments:
Assay in all cases: Herbicidal effect by foliage and soil treatment
Format in all cases: in vivo
Settings in all cases: 10 g ai/10a, evaluated after 14 days
[1] = tested on: common blackjack (Bidens pilosa)
In short: (§1)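 Read-out: rated growth inhibition relative to non-treated plants 14 days after spraying. Young plants (cotyledon to two leaves) received a foliage-and-soil spray of compound in aqueous Tween 20 at a controlled rate, greenhouse at 19–25 °C.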

[2] = tested on: velvetleaf (Abutilon theophrasti)
In short: as §1

[3] = tested on: cleavers (Galium aparine)
In short: as §1

[4] = tested on: ivyleafspeedwell (Veronica hederaefolia)
In short: as §1

[5] = tested on: field bindweed (Convolvulus arvensis)
In short: as §1

[6] = tested on: wild chamomile (Matricaria chamomilla)
In short: as §1

[7] = tested on: common chickweed (Stellaria media)
In short: as §1

[8] = tested on: black nightshade (Solanum nigrum)
In short: as §1

[9] = tested on: sicklepod (Cassia obtusifolia)
In short: as §1

[10] = tested on: redroot pigweed (Amaranthus retroflexus)
In short: as §1

[11] = tested on: kediock (Sinapis arvensis)
In short: as §1

## COc1cc(Oc2cccc(C(F)(F)F)c2)nc(C(=O)NCC(F)(F)C(F)(F)C(F)(F)F)c1 [Compound I-80]
[1]
  herbicidal activity rating, BP (Bidens pilosa): 5 (percentage of weeds killed was not less than 80%)
[2]
  herbicidal activity rating, AT (Abutilon theophrasti): 5 (percentage of weeds killed was not less than 80%)
[3]
  herbicidal activity rating, GA (Galium aparine): 5 (percentage of weeds killed was not less than 80%)
[4]
  herbicidal activity rating, VH (Veronica hederaefolia): 5 (percentage of weeds killed was not less than 80%)
[5]
  herbicidal activity rating, CA (Convolvulus arvensis): 5 (percentage of weeds killed was not less than 80%)
[6]
  herbicidal activity rating, MC (Matricaria chamomilla): 5 (percentage of weeds killed was not less than 80%)
[7]
  herbicidal activity rating, SM (Stellaria media): 5 (percentage of weeds killed was not less than 80%)
[8]
  herbicidal activity rating, SN (Solanum nigrum): 5 (percentage of weeds killed was not less than 80%)
[9]
  herbicidal activity rating, CO (Cassia obtusifolia): 5 (percentage of weeds killed was not less than 80%)
[10]
  herbicidal activity rating, AR (Amaranthus retroflexus): 5 (percentage of weeds killed was not less than 80%)
[11]
  herbicidal activity rating, SA (Sinapis arvensis): 5 (percentage of weeds killed was not less than 80%)

## COc1cc(Oc2cccc(C(F)(F)F)c2)nc(C(=O)NCC(F)(F)C(F)(F)F)c1 [Compound I-81]
[1]
  herbicidal activity rating, BP (Bidens pilosa): 5 (percentage of weeds killed was not less than 80%)
[2]
  herbicidal activity rating, AT (Abutilon theophrasti): 5 (percentage of weeds killed was not less than 80%)
[3]
  herbicidal activity rating, GA (Galium aparine): 5 (percentage of weeds killed was not less than 80%)
[4]
  herbicidal activity rating, VH (Veronica hederaefolia): 5 (percentage of weeds killed was not less than 80%)
[5]
  herbicidal activity rating, CA (Convolvulus arvensis): 5 (percentage of weeds killed was not less than 80%)
[6]
  herbicidal activity rating, MC (Matricaria chamomilla): 5 (percentage of weeds killed was not less than 80%)
[7]
  herbicidal activity rating, SM (Stellaria media): 5 (percentage of weeds killed was not less than 80%)
[8]
  herbicidal activity rating, SN (Solanum nigrum): 5 (percentage of weeds killed was not less than 80%)
[9]
  herbicidal activity rating, CO (Cassia obtusifolia): 5 (percentage of weeds killed was not less than 80%)
[10]
  herbicidal activity rating, AR (Amaranthus retroflexus): 5 (percentage of weeds killed was not less than 80%)
[11]
  herbicidal activity rating, SA (Sinapis arvensis): 5 (percentage of weeds killed was not less than 80%)

## COc1cc(Oc2cccc(C(F)(F)F)c2)nc(C(=O)NCC(F)(F)F)c1 [Compound I-82]
[1]
  herbicidal activity rating, BP (Bidens pilosa): 4 (percentage of weeds killed was not less than 60% and less than 80%)
[2]
  herbicidal activity rating, AT (Abutilon theophrasti): 5 (percentage of weeds killed was not less than 80%)
[3]
  herbicidal activity rating, GA (Galium aparine): 5 (percentage of weeds killed was not less than 80%)
[4]
  herbicidal activity rating, VH (Veronica hederaefolia): 5 (percentage of weeds killed was not less than 80%)
[5]
  herbicidal activity rating, CA (Convolvulus arvensis): 5 (percentage of weeds killed was not less than 80%)
[6]
  herbicidal activity rating, MC (Matricaria chamomilla): 5 (percentage of weeds killed was not less than 80%)
[7]
  herbicidal activity rating, SM (Stellaria media): 5 (percentage of weeds killed was not less than 80%)
[8]
  herbicidal activity rating, SN (Solanum nigrum): 5 (percentage of weeds killed was not less than 80%)
[9]
  herbicidal activity rating, CO (Cassia obtusifolia): 5 (percentage of weeds killed was not less than 80%)
[10]
  herbicidal activity rating, AR (Amaranthus retroflexus): 5 (percentage of weeds killed was not less than 80%)
[11]
  herbicidal activity rating, SA (Sinapis arvensis): 5 (percentage of weeds killed was not less than 80%)

## COc1cc(Oc2cccc(C(F)(F)F)c2)nc(C(=O)NC=C(Cl)Cl)c1 [Compound I-83, N-(2,2-dichlorovinyl)-4-methoxy-6-{3-(trifluoromethyl)phenoxy}-2-pyridine carboxamide]
[1]
  herbicidal activity rating, BP (Bidens pilosa): 5 (percentage of weeds killed was not less than 80%)
[2]
  herbicidal activity rating, AT (Abutilon theophrasti): 5 (percentage of weeds killed was not less than 80%)
[3]
  herbicidal activity rating, GA (Galium aparine): 5 (percentage of weeds killed was not less than 80%)
[4]
  herbicidal activity rating, VH (Veronica hederaefolia): 5 (percentage of weeds killed was not less than 80%)
[5]
  herbicidal activity rating, CA (Convolvulus arvensis): 5 (percentage of weeds killed was not less than 80%)
[6]
  herbicidal activity rating, MC (Matricaria chamomilla): 5 (percentage of weeds killed was not less than 80%)
[7]
  herbicidal activity rating, SM (Stellaria media): 5 (percentage of weeds killed was not less than 80%)
[8]
  herbicidal activity rating, SN (Solanum nigrum): 5 (percentage of weeds killed was not less than 80%)
[9]
  herbicidal activity rating, CO (Cassia obtusifolia): 5 (percentage of weeds killed was not less than 80%)
[10]
  herbicidal activity rating, AR (Amaranthus retroflexus): 5 (percentage of weeds killed was not less than 80%)
[11]
  herbicidal activity rating, SA (Sinapis arvensis): 5 (percentage of weeds killed was not less than 80%)

## COc1cc(Oc2cccc(C(F)(F)F)c2)nc(C(=O)NCC#N)c1 [Compound I-84, N-{(2-cyano)methyl}-4-methoxy-6-{3-(trifluoromethyl)phenoxy}-2-pyridine carboxamide]
[1]
  herbicidal activity rating, BP (Bidens pilosa): 5 (percentage of weeds killed was not less than 80%)
[2]
  herbicidal activity rating, AT (Abutilon theophrasti): 5 (percentage of weeds killed was not less than 80%)
[3]
  herbicidal activity rating, GA (Galium aparine): 5 (percentage of weeds killed was not less than 80%)
[4]
  herbicidal activity rating, VH (Veronica hederaefolia): 5 (percentage of weeds killed was not less than 80%)
[5]
  herbicidal activity rating, CA (Convolvulus arvensis): 4 (percentage of weeds killed was not less than 60% and less than 80%)
[6]
  herbicidal activity rating, MC (Matricaria chamomilla): 2 (percentage of weeds killed was not less than 20% and less than 40%)
[7]
  herbicidal activity rating, SM (Stellaria media): 4 (percentage of weeds killed was not less than 60% and less than 80%)
[8]
  herbicidal activity rating, SN (Solanum nigrum): 5 (percentage of weeds killed was not less than 80%)
[9]
  herbicidal activity rating, CO (Cassia obtusifolia): 5 (percentage of weeds killed was not less than 80%)
[10]
  herbicidal activity rating, AR (Amaranthus retroflexus): 5 (percentage of weeds killed was not less than 80%)
[11]
  herbicidal activity rating, SA (Sinapis arvensis): 5 (percentage of weeds killed was not less than 80%)

## COc1cc(Oc2cccc(C(F)(F)F)c2)nc(C(=O)NCC2CC2)c1 [Compound I-85]
[1]
  herbicidal activity rating, BP (Bidens pilosa): 4 (percentage of weeds killed was not less than 60% and less than 80%)
[2]
  herbicidal activity rating, AT (Abutilon theophrasti): 5 (percentage of weeds killed was not less than 80%)
[3]
  herbicidal activity rating, GA (Galium aparine): 5 (percentage of weeds killed was not less than 80%)
[4]
  herbicidal activity rating, VH (Veronica hederaefolia): 5 (percentage of weeds killed was not less than 80%)
[5]
  herbicidal activity rating, CA (Convolvulus arvensis): 4 (percentage of weeds killed was not less than 60% and less than 80%)
[6]
  herbicidal activity rating, MC (Matricaria chamomilla): 5 (percentage of weeds killed was not less than 80%)
[7]
  herbicidal activity rating, SM (Stellaria media): 5 (percentage of weeds killed was not less than 80%)
[8]
  herbicidal activity rating, SN (Solanum nigrum): 5 (percentage of weeds killed was not less than 80%)
[9]
  herbicidal activity rating, CO (Cassia obtusifolia): 5 (percentage of weeds killed was not less than 80%)
[10]
  herbicidal activity rating, AR (Amaranthus retroflexus): 5 (percentage of weeds killed was not less than 80%)
[11]
  herbicidal activity rating, SA (Sinapis arvensis): 5 (percentage of weeds killed was not less than 80%)
